{"source": "patent US9289444B2", "about": "“Composition for promoting hematogenesis containing quercetin 3-O-β-(2″-galloyl)-rhamnopyranoside as active ingredient” (Chungbuk National University Industry Academic Cooperation …, priority 2011, dated 2016)", "key": {"[1]": {"tested_on": "bone marrow stromal cells", "experiment": "Real-time RT-PCR of hematopoietic cytokine mRNA", "type": "cell-based, mouse", "text": "Bone marrow mononuclear cells (BMNCs) were isolated from femurs and tibias of 8 to 12-week-old male C57BL/6 mice by a previously described protocol [Kroeger K, Collins M, Ugozzoli (2009) The preparation of primary hematopoietic cell cultures from murine bone marrow for electroporation. J. Vis. Exp. 23: pii:1026. doi:10.3791/1026] and were separated from dead cells and red blood cells (RBCs) by Histopaque ([…]) (Sigma-Aldrich Chemical, St. Louis, Mo., USA) density gradient centrifugation. Thereafter, the cells were cultured in Iscove's modified Dulbecco's media (IMDM) with 15% heat inactivated fetal bovine serum (FBS), 1% bovine serum albumin (BSA), 100 units/ml penicillin and 100 μg/ml streptomycin at 37° C. in 5% CO2 humidified air. The separated blood was cultured as described previously [Oswald J, et al. (2004). Mesenchymal stem cells can be differentiated into endothelial cells in vitro. Stem Cells, 22: 377-384.] to obtain bone marrow stromal cells in α-minimum essential medium (MEM) with 20% heat inactivated FBS, 100 units/ml penicillin and 100 μg/ml streptomycin at 37° C. in 5% CO2 humidified air.\nTo confirm whether QGR regulates the expression of hematopoietic cytokines in bone marrow stromal cells, real-time RT-PCR was performed. Bone marrow stromal cells (3×10^5 cells/plate) were incubated with either mouse rIL-3 (100 units/ml) plus rSCF (5 units/ml) plus rEpo (3 units/ml) or QGR (50, 100 or 200 μM/ml) in 60 mm-diameter cell culture plates. The cells were harvested after 4 hr of incubation and washed with PBS and total RNA were extracted using RNA extraction kit (Applied Biosystems, Carlsbad, Calif., USA). First strand synthesis of cDNA was carried out with 1 μg of total RNA using cDNA synthesis kit (Applied Biosystems, Foster City, Calif., USA). Real-time PCR using TaqMan probe PCR master mix kit (Applied Biosystems) was performed according to the manufacturer's instruction using a model 7500 Real-Time PCR System (Applied Biosystems). GAPDH mRNA was utilized as an internal standard to normalize target transcript expression. The relative ratios of SCF, GM-CSF, or Epo mRNA to GAPDH mRNA which can be used to quantify precisely the levels of each mRNA expression, were calculated with the standard curves."}, "BMNCs": {"tested_on": "BMNCs", "experiment": "Flow cytometric analysis for cells positive for TER-119", "type": "cell-based, mouse", "conditions": "7 days, 100 or 200 μM/ml, dose-dependently, vs negative control", "description": "To confirm the differentiation of mouse HSCs or EPCs into erythroid cells by QGR treatment, flow cytometric analysis for mouse anti-TER-119 was performed. BMNCs were cultured with either rEpo (3 units/ml) or QGR (100 or 200 μM/ml) in 6-well plates. Cells were harvested at day 7, washed with PBS, re-suspended at concentration of 1×10^5 cells/ml in 100 μl of PBS containing 0.02% sodium azide and 2% FBS, incubated with 10 μl of mouse anti-CD16/CD32 Ab (eBioScience, San Diego, Calif., USA) as Fc receptor blocker for 3 min at room temperature and incubated with PE-conjugated anti-TER-119 Ab for 20 min at 4° C. Flow cytometric analysis was performed using FACS Calibur (Becton Dickinson, Oxnard, Calif., USA) and the percentage of positively stained cells was determined."}, "[2]": {"tested_on": "bone marrow failure mouse induced by busulphan (BU)", "experiment": "Peripheral blood analysis in bone marrow failure model induced by busulphan (BU)", "type": "in vivo, Balb/c mice", "text": "5-week-old female Balb/c mice were purchased from Orient Bio Inc. (Seongnam-si, Gyeonggi-do, Korea). All protocols of animal experiments were approved by Institutional Animal Care and Use Committee of Laboratory Animal Research Center, Chungbuk National University. The mice were fed by Teklad Global 18% protein rodent diet (Harlan, Iowa, USA) and had free access to drinking water. The mice were housed and bred under specific pathogen-free conditions, and were went through environmental acclimatization for one week before used in the animal experiments and were separated into three groups (n=70/group).\n(§1) Bone marrow failure model induced by administering busulphan (BU) was designed according to the procedures previously described by Molyneux et al (Cell Biol Toxicol 27, 13-40, 2011) and the scheme is shown in FIG. 8. BU (Sigma chemicals, Poole, Dorset, UK) was dissolved in acetone to a final concentration of 18.8 mg/ml, diluted five-fold with distilled water, and was intraperitoneally administered three times for 5 days with the dose of 0.2 ml BU solution per mouse. Equal amount of five-fold diluted acetone solution without BU was administered to vehicle control group. QGR was dissolved in dimethylsulfoxide and diluted with distilled water to a final concentration of 1.25%. Mice were orally administered every two days with QGR (0.25 mg/mouse) for 63 days. Seven or eight mice were sacrificed on days of 1, 5, 10, 16, 25, 40, 49, and 63 after BU administration and were investigated to confirm the effect of QGR to recover bone marrow failure.\nIn order to evaluate the activity of QGR to recover anemia animal model induced by BU administration, peripheral blood was collected during an autopsy and were investigated. The collected peripheral blood was stored in the bottle containing EDTA to prevent a blood clotting, and the numbers of erythrocytes, leukocytes, and platelets, hematocrit (HCT) level, mean corpuscular volume (MCV), and mean corpuscular hemoglobin (MCH) were measured."}, "[3]": {"tested_on": "bone marrow failure mouse induced by busulphan (BU)", "experiment": "Histopathological features of bone marrow and osteoid formation in BU bone marrow failure model", "type": "in vivo, Balb/c mice", "description": "as §1\nIn order to confirm histological bone marrow damage induced by BU administration and to investigate whether QGR recovers the damaged bone marrow, histopathological features of H&E staining slide of the respective group's bone marrow were observed and compared to each other among the groups. In addition, the degree of sinusoid damage in bone marrow was graded as normal, hemorrhage or discontinuous, regressed vessel, assigned with numerical value and compared to each other among the groups. Moreover, in order to investigate the effect of QGR on the differentiation and maturation from mesenchymal stem cells to osteoblast, the formation of osteoid in humerus was comparatively analyzed. Goldner's trichrome staining was carried for osteoid and the stained area of the respective group was compared with each other after determining the stained area by using an image analyzer."}, "[4]": {"conditions": "100 and 200 μM, vs rIL-3+rSCF+rEpo"}, "[5]": {"conditions": "QGR 0.25 mg/mouse orally after BU"}}, "data": [{"smiles": "CC1OC(Oc2c(-c3ccc(O)c(O)c3)oc3cc(O)cc(O)c3c2=O)C(OC(=O)c2cc(O)c(O)c(O)c2)C(O)C1O", "note": "(stereo not drawn) [QGR, quercetin 3-O-β-(2″-galloyl)-rhamnopyranoside]", "values": [{"measurement": "mRNA expression levels of SCF, GM-CSF and Epo", "setting": "[1]; 50, 100 or 200 μM/ml, 4 hrs, dose-dependent", "value": "increased"}, {"measurement": "Epo mRNA compared to the positive control", "setting": "[1]; [4]", "value": "significantly increased"}, {"measurement": "GM-CSF mRNA compared to the positive control", "setting": "[1]; [4]", "value": "significantly increased"}, {"measurement": "SCF mRNA compared to the positive control", "setting": "[1]; all concentrations, vs rIL-3+rSCF+rEpo", "value": "significantly increased"}, {"measurement": "ratio of TER-119+ cells (flow cytometric analysis)", "setting": "BMNCs", "value": "significantly increased"}, {"measurement": "mean corpuscular volume (MCV)", "setting": "[2]; BU group vs BU+QGR group", "value": "BU administration group are significantly lower than those of BU+QGR administration group"}, {"measurement": "leukocyte numbers vs normal control group", "setting": "[2]; [5]", "value": "slightly lower"}, {"measurement": "recovery effect of leukocyte level, onset", "setting": "[2]; [5]", "value": "≥ 10", "unit": "days"}, {"measurement": "recovery effect on erythrocyte level, onset", "setting": "[2]; [5]", "value": "≥ 5", "unit": "days"}, {"measurement": "recovery of reduced platelet numbers, onset", "setting": "[2]; [5]", "value": "≥ 16", "unit": "days"}, {"measurement": "erythrocyte level vs normal control group", "setting": "[2]; QGR 0.25 mg/mouse orally every two days after BU", "value": "slightly lower"}, {"measurement": "erythrocyte level vs positive control group (BU + vehicle)", "setting": "[2]; QGR 0.25 mg/mouse orally every two days, days 5, 10, 16, 25, 49, 63", "value": "significantly higher"}, {"measurement": "leukocyte numbers vs positive control group (BU + vehicle)", "setting": "[2]; day 10 up to day 63", "value": "higher level"}, {"measurement": "hemoglobin (HGB) level", "setting": "[2]; pattern similar to erythrocytes", "value": "recovered the anemia"}, {"measurement": "platelet numbers", "setting": "[2]; vs positive control group (BU + vehicle), significant differences continuously", "value": "steeply recovered"}, {"measurement": "degree of osteoid formation", "setting": "[3]; Goldner's trichrome staining, vs positive control group", "value": "actively formed"}, {"measurement": "number of cells in bone marrow of humerus (cellularity)", "setting": "[3]; H&E, vs positive control group", "value": "recovered"}, {"measurement": "number of regressed sinusoid", "setting": "[3]; day 10", "value": "significantly decreased"}, {"measurement": "number of normal sinusoid", "setting": "[3]; day 10, vs positive control group (BU)", "value": "greater"}, {"measurement": "number of normal sinusoids", "setting": "[3]; day 63", "value": "increased"}, {"measurement": "numbers of hemorrhagic sinusoids", "setting": "[3]; day 63", "value": "significantly decreased"}, {"measurement": "numbers of regressed sinusoids", "setting": "[3]; day 63", "value": "significantly decreased"}, {"measurement": "area of osteoid formation", "setting": "[3]; from day 10 after QGR administration, vs positive control group", "value": "increased significantly"}, {"measurement": "number of megakaryocytes surrounding sinusoid", "setting": "[3]; from day 16 after QGR administration, vs positive control group", "value": "increased"}, {"measurement": "sinusoidal endothelia in the bone marrow", "setting": "[3]; vs severely damaged sinusoids in positive control group", "value": "recovered sinosoids"}]}]}
